Measurements taken from patent publication US11814376B2, “Hepatitis b core protein modulators” (Assembly Biosciences, Inc., priority 2015, dated 2023).

Legend:
[1] = test system: HBV viral load in AD38 cells; assay: Viral load production in AD38 cells, quantitative PCR of the core sequence in supernatant; format: cell-based; conditions: 10 μM compound, 6 days at 37° C., supernatant qPCR, relative to DMSO control; for activity at 10 µM: Hepatitis B virus, 144 h, read-out: AD38 Viral Load (%) (VL with cmpd/VL in DMSO control) at 10 μM
AD38 cells = assay: Viability of AD38 cells (Promega CellTiter-Glo); format: cell-based; conditions: 10 μM compound, 6 days, CellTiter-Glo luminescence normalized to DMSO control (100%)
Outline: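 After 6 days of compound exposure at 37° C (compound added as 10× solution in 10% DMSO; 50,000 cells/well, collagen-coated), medium was replaced with tetracycline-free DMEM/F12, 2% FBS, 1% DMSO. CellTiter-Glo luminescence was then recorded and normalized to DMSO-treated wells as 100% viability.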

Compound	activity at 10 µM [1] [%]	AD38 Viability Normalized Result (cmpd/DMSO %) at 10 μM (AD38 cells) [%]	AD38 Viral Load (%) (VL with cmpd/VL in DMSO control) at 10 μM [1]
CCN(CC)CCCOc1ccc(-c2ncc(CNC(=O)c3ccc4c(c3)NC(=O)c3ccccc3O4)s2)cc1.Cl [compound 11162, N-((2-(4-(3-(diethylamino)propoxy)phenyl)thiazol-5-yl)methyl)-11-oxo-10, 11-dihydrodibenzo [b, f] [1, 4] oxazepine-8-carboxamide hydrochloride]	8.7	104	–
O=C(NCc1cnc(-c2ccc(O)cn2)s1)c1ccc2c(c1)NC(=O)c1ccccc1S2(=O)=O [compound 1879, N-((2-(5-hydroxypyridin-2-yl)thiazol-5-yl)methyl)-11-oxo-10, 11-dihydrodibenzo [b, f] [1, 4] thiazepine-8-carboxamide 5,5-dioxide]	7.2	104	–
O=C(NCc1cnc(-c2ccccc2)s1)c1ccc2c(c1)NC(=O)c1ccccc1O2 [compound 1562]	0.9	97	–
CC(C)(C)OC(=O)NCCNC(=O)c1ccc(-c2ncc(CNC(=O)c3ccc4c(c3)NC(=O)c3ccccc3S4(=O)=O)s2)cc1 [11017-A, tert-butyl (2-(4-(5-((5,5-dioxido-11-oxo-10, 11-dihydrodibenzo [b, f] [1, 4]thiazepine-8-carboxamido)methyl)thiazol-2-yl)benzamido)ethyl)carbamate]	8.8	102	–
COc1ccc(-c2ncc(CNC(=O)c3ccc4c(c3)NC(=O)c3ccccc3O4)s2)cn1 [compound 1705, N-((2-(6-methoxypyridin-3-yl)thiazol-5-yl)methyl)-11-oxo-10, 11-dihydrodibenzo [b, f] [1, 4] oxazepine-8-carboxamide]	3.7	93	–
Cc1c(C(=O)NCc2cnc(-n3cccn3)s2)ccc2c1NC(=O)c1ccccc1S2(=O)=O [C38-02]	0.5	94	–
Cc1nc(C)c(CNC(=O)c2ccc3c(c2)NC(=O)c2ccccc2S3(=O)=O)s1 [compound 1763]	12.9	93	–
NCCC#Cc1ccc(-c2ncc(CNC(=O)c3ccc4c(c3)NC(=O)c3ccccc3S4(=O)=O)s2)cc1 [compound 11002, N-((2-(4-(4-aminobut-1-yn-1-yl)phenyl)thiazol-5-yl)methyl)-11-oxo-10, 11-dihydrodibenzo [b, f] [1, 4] thiazepine-8-carboxamide 5,5-dioxide]	0.9	90	–
Cl.O=C(NCc1cnc(-c2ccc(OCC3CCCNC3)cc2)s1)c1ccc2c(c1)NC(=O)c1ccccc1S2(=O)=O (stereo not drawn) [compound 1997, 11-oxo-N-((2-(4-(piperidin-3-ylmethoxy)phenyl)thiazol-5-yl)methyl)-10, 11-dihydrodibenzo [b, f] [1, 4] thiazepine-8-carboxamide 5,5-dioxide hydrochloride]	9.7	104	–
N#Cc1ncc(CNC(=O)c2ccc3c(c2)NC(=O)c2ccccc2S3)s1 [compound 1627]	6	63	–
CCCCN1c2ccc(C(=O)NCc3cnc(C(F)(F)F)s3)cc2NC(=O)c2ccccc21 [compound 1922]	60.3	39	–
O=C(NCc1cnc(-c2cc(F)c(O)c(F)c2)s1)c1ccc2c(c1)NC(=O)c1ccccc1S2(=O)=O [compound 1665]	2.7	90	–
NS(=O)(=O)c1ccc(-c2ncc(CNC(=O)c3ccc4c(c3)NC(=O)c3ccccc3O4)s2)cc1 [compound 1862]	19.9	107	–
O=C(NCc1cnc(-c2cc(F)ccn2)s1)c1ccc2c(c1)NC(=O)c1ccccc1S2(=O)=O [compound 11050]	0.7	96	–
Cc1cc(-c2ncc(CNC(=O)c3ccc4c(c3)NC(=O)c3ccccc3S4(=O)=O)s2)cc(C)c1O [compound 1806, N-((2-(4-hydroxy-3,5-dimethylphenyl)thiazol-5-yl)methyl)-11-oxo-10, 11-dihydrodibenzo [b, f] [1, 4] thiazepine-8-carboxamide 5,5-dioxide]	0.8	105	–
O=C(NCc1cnc(-c2ccc(CCCCN3CCCCC3)cc2)s1)c1ccc2c(c1)NC(=O)c1ccccc1S2(=O)=O [compound 11055]	4	94	–
O=C(NCc1cnc(-c2ccc(O)c(Cl)c2)s1)c1ccc2c(c1)NC(=O)c1ccccc1S2(=O)=O [compound 1667]	0.5	93	–
Cc1c(C(=O)NCc2cnc(-n3cccn3)s2)ccc2c1NC(=O)c1ccccc1S2(=O)=O [compound 11074]	–	103	0.6

Compound	activity at 10 µM [1] [%]	AD38 Viability Normalized Result (cmpd/DMSO %) at 10 μM (AD38 cells) [%]	AD38 Viral Load (%) (VL with cmpd/VL in DMSO control) at 10 μM [1]
O=C(NCc1cnc(-c2ccc(C#CCCN3CCOCC3)cc2)s1)c1ccc2c(c1)NC(=O)c1ccccc1S2(=O)=O [compound 11061, N-((2-(4-(4-morpholinobut-1-yn-1-yl)phenyl)thiazol-5-yl)methyl)-11-oxo-10, 11-dihydrodibenzo [b, f] [1, 4] thiazepine-8-carboxamide 5,5-dioxide]	0.9	95	–
O=C(NCc1cnc(-c2ccc(-c3nccs3)cc2)s1)c1ccc2c(c1)NC(=O)c1ccccc1S2(=O)=O [compound 1954]	0.5	106	–
CCCN1c2ccc(C(=O)NCc3cnc(C(F)(F)F)s3)cc2NC(=O)c2ccccc21 [compound 1916]	15.5	103	–
N#Cc1ccc(-c2ncc(CNC(=O)c3ccc4c(c3)NC(=O)c3ccccc3O4)s2)c(F)c1 [compound 1826]	11.8	91	–
Cc1c(C(=O)NCc2cnc(-c3ccc(OCCCN(C)C)cc3)s2)ccc2c1NC(=O)c1ccccc1O2 [C44-01]	2.6	97	–
Cl.NCCc1ccccc1-c1ncc(CNC(=O)c2ccc3c(c2)NC(=O)c2ccccc2S3(=O)=O)s1 [compound 1842, N-((2-(2-(2-aminoethyl)phenyl)thiazol-5-yl)methyl)-11-oxo-10, 11-dihydrodibenzo [b, f] [1, 4] thiazepine-8-carboxamide 5,5-dioxide hydrochloride]	46.5	109	–
CN(C)CCCCOc1ccc(-c2ncc(CNC(=O)c3ccc4c(c3)NC(=O)c3ccccc3S4(=O)=O)s2)cc1 [compound 11001]	1.7	77	–
O=C(NCc1cnc(-c2ncco2)s1)c1ccc2c(c1)NC(=O)c1ccccc1S2(=O)=O [compound 1958]	1.5	91	–
CN(C)c1ncc(CNC(=O)c2ccc3c(c2)NC(=O)c2ccccc2S3)s1 [compound 1425]	0.6	100	–
NCCCS(=O)(=O)c1ccc(-c2ncc(CNC(=O)c3ccc4c(c3)NC(=O)c3ccccc3S4(=O)=O)s2)cc1.O=C(O)C(F)(F)F [compound 11032, N-((2-(4-((3-aminopropyl)sulfonyl)phenyl)thiazol-5-yl)methyl)-11-oxo-10, 11-dihydrodibenzo [b, f] [1, 4] thiazepine-8-carboxamide 5,5-dioxide TFA salt]	51.7	103	–
N#Cc1ccc(-c2ncc(CNC(=O)c3ccc4c(c3)NC(=O)c3ccccc3S4(=O)=O)s2)c(F)c1 [compound 1814]	0.9	92	–
CN(C)CCCS(=O)(=O)c1ccc(-c2ncc(CNC(=O)c3ccc4c(c3)NC(=O)c3ccccc3S4(=O)=O)s2)cc1.O=C(O)C(F)(F)F [compound 11033, N-((2-(4-((3-(dimethylamino)propyl)sulfonyl)phenyl)thiazol-5-yl)methyl)-11-oxo-10, 11-dihydrodibenzo [b, f] [1, 4] thiazepine-8-carboxamide 5,5-dioxide TFA salt]	17.1	95	–
CN(C)c1ccnc(-c2ncc(CNC(=O)c3ccc4c(c3)NC(=O)c3ccccc3S4(=O)=O)s2)c1 [compound 1889, N-((2-(4-(dimethylamino)pyridin-2-yl)thiazol-5-yl)methyl)-11-oxo-10,11-dihydrodibenzo [b, f] [1, 4] thiazepine-8-carboxamide 5,5-dioxide]	4.6	98	–
CCN1c2ccc(C(=O)NCc3cnc(-c4ccc(O)cc4)s3)cc2NC(=O)c2ccccc21 [compound 1751]	2.8	18	–
Cc1c(C(=O)NCc2cnc(-c3ccc(C#N)cc3)s2)cc(Br)c2c1NC(=O)c1ccccc1S2 [compound 1915]	15.7	100	–
N#CC1(COc2ccc(-c3ncc(CNC(=O)c4ccc5c(c4)NC(=O)c4ccccc4S5(=O)=O)s3)cc2)CCC1 [compound 11182]	0.7	104	–
CN(C)CCCOc1ccc(-c2ncc(CNC(=O)c3ccc4c(c3)NC(=O)c3ccccc3O4)s2)cc1 [compound 1698]	2.7	91	–
O=C(NCc1cnc(-c2nccs2)s1)c1ccc2c(c1)NC(=O)c1ccccc1S2(=O)=O [compound 1882]	1	103	–
